The values that follow come from paper PMC7571187, “Novel Acetylcholinesterase Inhibitors Based on Uracil Moiety for Possible Treatment of Alzheimer Disease” (Molecules, 2020).

Assay [1] addresses T1, hAChE (recombinant human AChE; AChE from human erythrocytes in Table 1) (Homo sapiens, UniProt P22303).
T1 construct: commercial recombinant human AChE (Sigma-Aldrich) per methods
The experiment in a line: Ellman assay, […] nm. Format: biochemical. In general terms: DTNB colorimetry detects thiols as they appear.

The target of assay [2] is T2, hBChE (BChE from human plasma; serum hBChE) (Homo sapiens, UniProt P06276).
T2 construct: native, commercial from human plasma / serum (Sigma-Aldrich)
In words: Ellman assay, […] nm. The format is biochemical.

T2 sequence (P06276 29-602): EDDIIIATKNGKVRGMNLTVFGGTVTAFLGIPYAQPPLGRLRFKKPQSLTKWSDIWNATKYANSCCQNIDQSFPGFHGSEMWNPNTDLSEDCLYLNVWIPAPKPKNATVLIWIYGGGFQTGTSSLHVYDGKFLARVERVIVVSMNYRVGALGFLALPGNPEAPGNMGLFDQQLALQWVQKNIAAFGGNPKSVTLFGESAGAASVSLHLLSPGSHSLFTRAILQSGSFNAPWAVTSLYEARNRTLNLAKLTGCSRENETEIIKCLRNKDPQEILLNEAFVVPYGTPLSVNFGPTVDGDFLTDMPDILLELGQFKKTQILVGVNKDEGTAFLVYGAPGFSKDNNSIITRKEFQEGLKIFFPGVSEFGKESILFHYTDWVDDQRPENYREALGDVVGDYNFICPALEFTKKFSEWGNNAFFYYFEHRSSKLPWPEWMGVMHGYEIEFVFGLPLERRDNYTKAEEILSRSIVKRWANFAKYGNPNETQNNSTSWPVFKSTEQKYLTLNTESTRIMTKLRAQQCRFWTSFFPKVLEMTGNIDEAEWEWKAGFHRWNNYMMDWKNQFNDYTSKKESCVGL
T1 sequence (P22303 32-614): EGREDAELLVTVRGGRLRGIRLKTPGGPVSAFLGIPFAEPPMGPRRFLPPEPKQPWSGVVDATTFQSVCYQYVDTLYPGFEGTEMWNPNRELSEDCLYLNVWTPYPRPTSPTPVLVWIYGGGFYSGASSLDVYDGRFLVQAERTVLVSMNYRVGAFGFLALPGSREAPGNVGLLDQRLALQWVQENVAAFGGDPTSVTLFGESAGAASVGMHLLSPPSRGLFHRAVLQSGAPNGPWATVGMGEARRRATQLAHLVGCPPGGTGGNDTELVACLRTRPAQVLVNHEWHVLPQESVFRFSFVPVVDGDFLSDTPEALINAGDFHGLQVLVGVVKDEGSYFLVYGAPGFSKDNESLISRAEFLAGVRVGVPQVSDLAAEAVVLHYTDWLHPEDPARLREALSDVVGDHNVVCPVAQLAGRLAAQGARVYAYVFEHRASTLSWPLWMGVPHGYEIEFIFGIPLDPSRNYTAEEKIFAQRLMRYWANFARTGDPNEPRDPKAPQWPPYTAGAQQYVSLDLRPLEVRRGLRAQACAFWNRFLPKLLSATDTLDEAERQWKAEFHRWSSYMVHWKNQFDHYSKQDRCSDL

Consider `CCN(CCCCn1c(C)cc(=O)n(CCCCN(CC)Cc2ccccc2C#N)c1=O)Cc1ccccc1C#N` [2a, 1,3-bis[4-(o-Nitrilebenzylethylamino)butyl]-6-methyluracil], for which the half-maximal inhibitory concentration (IC50) – broadly, the concentration needed to halve the response being measured – was found to be 7 ± 0.5 nM in assay [1] and 65000 nM in assay [2].

In the case of `CCN(CCCCn1c(=O)c2ccccc2n(CCCCN(CC)Cc2ccccc2C#N)c1=O)Cc1ccccc1C#N` [4a, 1,3-bis[4-(o-Nitrilebenzylethylamino)butyl]-quinazoline-2,4-dione], the half-inhibitory concentration (IC50) stood at 5520 ± 400 nM in assay [1] and 2620 ± 200 nM in assay [2].

Consider `Cc1cc(=O)n(CCCCCNCc2ccccc2C#N)c(=O)n1CCCCCNCc1ccccc1C#N` [compound 3, 1,3-bis[5-(o-Nitrilebenzylamino)pentyl]-6-methyluracil], for which the IC50 in assay [1] was found to be 480 ± 30 nM; in assay [2], 1800 ± 170 nM.

Consider `Cc1cc(=O)n(CCCCCN=Cc2ccccc2C#N)c(=O)n1CCCCCN=Cc1ccccc1C#N` [compound 13, 1,3-bis[5-(o-Nitrilebenzyl)aldiminopentyl]-6-methyluracil], for which the results for the half-maximal inhibitory concentration (IC50) in assay [1] and in assay [2] were 2320 ± 170 nM and 2160 ± 150 nM, respectively.
